The format of the data set is in vitro ADME. How it is done: Selection of resistant mutants
Resistant mutants were generated using the large inoculum method. Briefly, S. aureus 29213, E. coli MG1655, and A. baumannii 19606 (~1 x 1010 CFUs) was plated on 100-mm plates (E. coli and A. baumannii) or 150-mm plates (S. aureus) of MH agar containing either 128, 64, or 32 µg/mL fabimycin (for gram-negatives) or 0.125, 0.062, and 0.031 µg/mL fabimycin (for S. aureus). Plates were incubated at 37 °C for 48 h and counted for the presence of colony forming units.
Glycerol stocks of selected colonies were made, and resistant colonies confirmed by growing on agar plates containing the same concentration of fabimycin that they were generated at.
Sequencing of bacterial fabI
The FabI gene was amplified by PCR. Fabimycin-resistant colonies were picked and diluted in 100 µL sterile, nuclease-free H2O. […] A 10 µL portion of PCR reaction mixture was analyzed by agarose gel electrophoresis to confirm the single 1.4-kilobase pair product. […]
Candidate drugs were incubated with plasma and parent drug levels were monitored at various time points (generally t=0, 10, 20, 30, and 60 minutes) to determine the drug’s half-life in the presence of the chosen system. […] The supernatant was collected after centrifugation, and the sample analyzed by LC-MS where the percentage of compound remaining is plotted vs time to determine the drug’s half-life. […]

For the compound `Cc1c(CN(C)C(=O)/C=C/c2cnc3c(c2)CC[C@H](N)C(=O)N3)oc2ccccc12` [fabimycin], the plasma protein binding entry is given as “lower plasma protein binding relative to Debio-1452”.

For the origin of these results see PMC9413440, “An Iterative Approach Guides Discovery of the FabI Inhibitor Fabimycin, a Late-Stage Antibiotic Candidate with In Vivo Efficacy against Drug-Resistant Gram-Negative Infections” (ACS Central Science, 2022).
